Assays:
Assay type in all cases: biochemical
[1] = molecular target: casein kinase 1 delta (CKIδ) (Homo sapiens, UniProt P48730); test: in vitro kinase assay IC50
CKIα = molecular target: T1, CKIα (Homo sapiens, UniProt P48729); test: in vitro kinase assay
T1 sequence (P48729 2-337): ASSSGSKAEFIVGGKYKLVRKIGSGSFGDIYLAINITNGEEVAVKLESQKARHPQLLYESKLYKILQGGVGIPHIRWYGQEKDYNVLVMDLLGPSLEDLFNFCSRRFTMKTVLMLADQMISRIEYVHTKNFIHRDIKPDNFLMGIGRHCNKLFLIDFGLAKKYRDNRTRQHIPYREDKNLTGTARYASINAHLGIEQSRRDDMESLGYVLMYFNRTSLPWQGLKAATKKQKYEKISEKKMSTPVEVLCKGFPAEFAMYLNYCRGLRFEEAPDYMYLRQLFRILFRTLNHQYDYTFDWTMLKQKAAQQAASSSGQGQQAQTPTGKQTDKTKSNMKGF

CKIε = CKIε (Homo sapiens, UniProt P49674); test: in vitro kinase assay
Sequence of CKIε (P49674 whole entry): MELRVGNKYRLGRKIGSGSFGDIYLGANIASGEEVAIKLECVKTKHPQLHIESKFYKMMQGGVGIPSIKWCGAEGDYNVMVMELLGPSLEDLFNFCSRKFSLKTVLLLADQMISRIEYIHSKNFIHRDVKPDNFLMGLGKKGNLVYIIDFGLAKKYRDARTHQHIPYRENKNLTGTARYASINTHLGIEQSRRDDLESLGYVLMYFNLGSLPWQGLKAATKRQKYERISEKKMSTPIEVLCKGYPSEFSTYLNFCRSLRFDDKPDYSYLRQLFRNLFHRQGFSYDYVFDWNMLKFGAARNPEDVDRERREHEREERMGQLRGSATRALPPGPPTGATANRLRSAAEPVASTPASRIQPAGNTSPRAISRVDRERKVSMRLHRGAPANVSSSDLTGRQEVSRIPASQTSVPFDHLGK

Sequence of casein kinase 1 delta (CKIδ) (P48730 whole entry): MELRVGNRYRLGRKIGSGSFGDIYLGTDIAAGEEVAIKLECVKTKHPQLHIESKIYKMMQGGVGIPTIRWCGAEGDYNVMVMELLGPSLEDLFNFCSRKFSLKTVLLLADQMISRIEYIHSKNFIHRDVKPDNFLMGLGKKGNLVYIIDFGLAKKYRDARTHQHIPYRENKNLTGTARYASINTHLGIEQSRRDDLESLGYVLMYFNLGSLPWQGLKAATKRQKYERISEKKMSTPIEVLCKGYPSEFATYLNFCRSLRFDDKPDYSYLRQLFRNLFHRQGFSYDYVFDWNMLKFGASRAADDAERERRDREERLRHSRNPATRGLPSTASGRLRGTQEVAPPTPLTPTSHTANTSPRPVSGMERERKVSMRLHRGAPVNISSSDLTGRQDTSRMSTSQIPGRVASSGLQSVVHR

Question: What does the source list for Cc1cc2sc(NC(=O)Cc3ccccc3)nc2cc1Cl [LH846]?
Answer: IC50 [1]: 0.29 µM; IC50 (CKIα): 2.5 µM; IC50 (CKIε): 1.3 µM
